Laboratory results from ChEMBL document CHEMBL5316308, “BET-HDAC Dual Inhibitors for Combinational Treatment of Breast Cancer and Concurrent Candidiasis” (J Med Chem, 2023).
Values after ≈ are worked out from the molar mass of the structure shown. Active and inactive are the calls of the source. No cut-off for these calls is given here.

How the values were obtained:
MDA-MB-231 [1] = assay: Upregulation of acetyl-H3 level in human MDA-MB-231 cells incubated for 24 hrs by Western blot analysis; format: functional, cell-based; settings: dose 0.2-5 µM
Histone deacetylase 1 = Histone deacetylase 1 (Homo sapiens, UniProt Q13547); assay: Inhibition of full-length recombinant human HDAC1 (1 to 482 residues) expressed in baculovirus infected insect cells using Ac-Leu-Gly-Lys(Ac)-AMC as substrate incubated for 30 mins by fluorescence based assay; set-up: species or system Insect cell
Chain of Histone deacetylase 1 (Q13547 whole entry, the tested form may be a part): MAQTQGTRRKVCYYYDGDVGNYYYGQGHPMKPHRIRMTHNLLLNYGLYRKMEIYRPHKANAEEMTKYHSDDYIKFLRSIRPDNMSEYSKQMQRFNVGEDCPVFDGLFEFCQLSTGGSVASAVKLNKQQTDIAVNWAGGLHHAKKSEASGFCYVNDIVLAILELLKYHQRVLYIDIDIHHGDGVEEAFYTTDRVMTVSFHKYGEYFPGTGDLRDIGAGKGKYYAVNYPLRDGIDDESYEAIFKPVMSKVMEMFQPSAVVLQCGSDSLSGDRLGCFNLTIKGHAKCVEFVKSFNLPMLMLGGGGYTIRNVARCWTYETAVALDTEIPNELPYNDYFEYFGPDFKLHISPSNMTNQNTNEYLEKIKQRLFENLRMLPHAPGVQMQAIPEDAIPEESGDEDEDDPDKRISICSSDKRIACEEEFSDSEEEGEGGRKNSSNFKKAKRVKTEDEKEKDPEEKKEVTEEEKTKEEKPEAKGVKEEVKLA

[2] = target: Bromodomain-containing protein 4 (Homo sapiens, UniProt O60885); assay: Inhibition of recombinant BRD4 (unknown origin) incubated for 120 mins by TR-FRET assay
K562 = assay: Antiproliferative activity against human K562 cells assessed as cell growth inhibition incubated for 24 hrs by CCK-8 assay; format: functional, cell-based; settings: K562, 24 h
HEL = assay: Antiproliferative activity against human HEL cells assessed as cell growth inhibition incubated for 24 hrs by CCK-8 assay; format: functional, cell-based
HL-60 = assay: Antiproliferative activity against human HL-60 cells assessed as cell growth inhibition incubated for 24 hrs by CCK-8 assay; format: functional, cell-based; settings: HL-60, 24 h
MDA-MB-231 [3] = assay: Antiproliferative activity against human MDA-MB-231 cells assessed as cell growth inhibition incubated for 24 hrs by CCK-8 assay; format: functional, cell-based; settings: MDA-MB-231, 24 h
Cryptococcus neoformans = assay: Antifungal activity against Cryptococcus neoformans H99 assessed as fungal growth inhibition measured after 48 hrs by CLSI based micro-dilution broth method; format: functional
Candida albicans [4] = assay: microbe, parasite or virus in culture; format: functional; settings: 0304103, time 48 hrs
Description: Synergistic antifungal activity against azole-resistant Candida albicans 0304103 assessed as fungal growth inhibition measured after 48 hrs by CLSI based micro-dilution broth method

Candida albicans [5] = assay: microbe, parasite or virus in culture; format: functional; settings: 0304103, time 48 hrs; remark: listed apart in the source
Description: Synergistic antifungal activity against azole-resistant Candida albicans 0304103 assessed as fungal growth inhibition measured after 48 hrs in presence of FLC by CLSI based micro-dilution broth method

Candida albicans [6] = format: functional, 0304103; settings: time 48 hrs
Description: Synergistic antifungal activity against azole-resistant Candida albicans 0304103 assessed as fractional inhibitory concentration index measured after 48 hrs in presence of FLC by CLSI based micro-dilution broth method

Histone deacetylase 2 = Histone deacetylase 2 (Homo sapiens, UniProt Q92769); assay: Inhibition of C-terminal GST-tagged full-length recombinant human HDAC2 expressed in baculovirus infected Sf9 insect cells using Ac-Leu-Gly-Lys(Ac)-AMC as substrate incubated for 30 mins by fluorescence based assay; format: cell-based
Chain of Histone deacetylase 2 (Q92769 whole entry): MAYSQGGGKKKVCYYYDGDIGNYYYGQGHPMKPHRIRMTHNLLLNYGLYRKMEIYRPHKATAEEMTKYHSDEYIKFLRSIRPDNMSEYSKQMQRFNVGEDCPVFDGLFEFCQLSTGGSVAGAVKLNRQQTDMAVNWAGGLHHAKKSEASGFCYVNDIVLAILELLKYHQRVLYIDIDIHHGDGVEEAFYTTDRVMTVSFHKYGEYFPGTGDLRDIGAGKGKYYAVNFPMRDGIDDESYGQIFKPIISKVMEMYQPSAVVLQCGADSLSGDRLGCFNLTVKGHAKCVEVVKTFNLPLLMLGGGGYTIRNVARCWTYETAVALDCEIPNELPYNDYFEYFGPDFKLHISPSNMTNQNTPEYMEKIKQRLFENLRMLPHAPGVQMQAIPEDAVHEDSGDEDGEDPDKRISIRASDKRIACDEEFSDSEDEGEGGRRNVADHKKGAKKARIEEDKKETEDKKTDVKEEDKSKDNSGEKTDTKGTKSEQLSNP

[7] = target: T1, Protein deacetylase HDAC6 (Homo sapiens, UniProt Q9UBN7); assay: Inhibition of N-terminal GST-tagged recombinant human HDAC6 expressed in baculovirus infected Sf9 insect cells using Ac-Leu-Gly-Lys(Ac)-AMC as substrate incubated for 30 mins by fluorescence based assay
T1 sequence (Q9UBN7 whole entry): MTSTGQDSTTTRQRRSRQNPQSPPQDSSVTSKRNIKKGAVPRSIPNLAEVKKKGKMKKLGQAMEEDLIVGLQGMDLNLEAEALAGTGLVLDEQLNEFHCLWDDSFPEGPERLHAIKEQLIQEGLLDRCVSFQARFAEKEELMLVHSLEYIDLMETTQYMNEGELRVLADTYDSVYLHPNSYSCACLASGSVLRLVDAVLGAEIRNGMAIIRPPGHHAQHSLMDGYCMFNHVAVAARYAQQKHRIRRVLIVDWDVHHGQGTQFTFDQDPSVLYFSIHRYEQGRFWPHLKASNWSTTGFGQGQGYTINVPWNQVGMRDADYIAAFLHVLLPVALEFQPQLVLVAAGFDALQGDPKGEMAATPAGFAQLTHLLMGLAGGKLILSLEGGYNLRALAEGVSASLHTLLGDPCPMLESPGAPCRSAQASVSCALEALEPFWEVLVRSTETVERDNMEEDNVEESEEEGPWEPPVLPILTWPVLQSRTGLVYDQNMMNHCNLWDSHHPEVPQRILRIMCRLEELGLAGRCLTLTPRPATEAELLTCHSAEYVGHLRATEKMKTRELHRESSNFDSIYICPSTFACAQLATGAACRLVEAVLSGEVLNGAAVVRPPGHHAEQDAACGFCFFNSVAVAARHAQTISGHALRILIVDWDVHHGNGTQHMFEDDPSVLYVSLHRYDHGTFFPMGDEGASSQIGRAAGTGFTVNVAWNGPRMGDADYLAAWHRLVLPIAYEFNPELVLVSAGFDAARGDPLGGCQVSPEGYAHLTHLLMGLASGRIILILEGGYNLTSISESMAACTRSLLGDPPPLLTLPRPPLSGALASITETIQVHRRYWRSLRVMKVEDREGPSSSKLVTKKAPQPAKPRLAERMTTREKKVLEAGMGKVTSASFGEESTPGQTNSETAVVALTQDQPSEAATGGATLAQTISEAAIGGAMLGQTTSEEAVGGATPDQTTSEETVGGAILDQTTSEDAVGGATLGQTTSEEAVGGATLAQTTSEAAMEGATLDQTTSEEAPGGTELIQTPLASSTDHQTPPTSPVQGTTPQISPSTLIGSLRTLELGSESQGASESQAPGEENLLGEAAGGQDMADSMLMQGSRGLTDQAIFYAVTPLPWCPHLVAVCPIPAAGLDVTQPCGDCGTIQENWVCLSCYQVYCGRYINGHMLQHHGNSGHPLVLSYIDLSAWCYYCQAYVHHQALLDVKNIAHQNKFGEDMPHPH

[8] = target: Bromodomain-containing protein 2 (Homo sapiens, UniProt P25440); assay: Inhibition of recombinant BRD2 BD1 (unknown origin) incubated for 120 mins by TR-FRET assay
Chain of Bromodomain-containing protein 2 (P25440 whole entry): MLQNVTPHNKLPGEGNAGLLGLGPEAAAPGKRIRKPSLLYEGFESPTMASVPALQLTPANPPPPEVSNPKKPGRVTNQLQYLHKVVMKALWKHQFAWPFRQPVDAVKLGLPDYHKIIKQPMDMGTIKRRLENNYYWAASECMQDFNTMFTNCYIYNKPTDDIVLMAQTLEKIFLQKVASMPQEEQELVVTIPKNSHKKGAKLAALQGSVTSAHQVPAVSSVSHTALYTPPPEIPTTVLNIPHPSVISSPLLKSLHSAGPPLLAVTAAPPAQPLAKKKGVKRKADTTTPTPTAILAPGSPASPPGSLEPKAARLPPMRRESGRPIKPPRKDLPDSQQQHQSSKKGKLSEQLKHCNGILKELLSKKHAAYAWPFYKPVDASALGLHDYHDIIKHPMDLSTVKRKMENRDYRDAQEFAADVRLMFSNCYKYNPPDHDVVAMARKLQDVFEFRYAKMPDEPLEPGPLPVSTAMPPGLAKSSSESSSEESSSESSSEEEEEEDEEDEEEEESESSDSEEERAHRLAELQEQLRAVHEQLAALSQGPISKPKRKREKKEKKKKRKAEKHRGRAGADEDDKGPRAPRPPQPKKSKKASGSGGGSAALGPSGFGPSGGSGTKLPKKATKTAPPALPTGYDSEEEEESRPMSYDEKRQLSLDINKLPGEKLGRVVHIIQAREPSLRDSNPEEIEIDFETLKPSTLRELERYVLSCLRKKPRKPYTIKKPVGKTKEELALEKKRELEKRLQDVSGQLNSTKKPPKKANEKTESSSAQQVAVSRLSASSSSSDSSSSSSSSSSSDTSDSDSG

[9] = target: Bromodomain-containing protein 3 (Homo sapiens, UniProt Q15059); assay: Inhibition of recombinant BRD3 BD1 (unknown origin) incubated for 120 mins by TR-FRET assay
Chain of Bromodomain-containing protein 3 (Q15059 whole entry): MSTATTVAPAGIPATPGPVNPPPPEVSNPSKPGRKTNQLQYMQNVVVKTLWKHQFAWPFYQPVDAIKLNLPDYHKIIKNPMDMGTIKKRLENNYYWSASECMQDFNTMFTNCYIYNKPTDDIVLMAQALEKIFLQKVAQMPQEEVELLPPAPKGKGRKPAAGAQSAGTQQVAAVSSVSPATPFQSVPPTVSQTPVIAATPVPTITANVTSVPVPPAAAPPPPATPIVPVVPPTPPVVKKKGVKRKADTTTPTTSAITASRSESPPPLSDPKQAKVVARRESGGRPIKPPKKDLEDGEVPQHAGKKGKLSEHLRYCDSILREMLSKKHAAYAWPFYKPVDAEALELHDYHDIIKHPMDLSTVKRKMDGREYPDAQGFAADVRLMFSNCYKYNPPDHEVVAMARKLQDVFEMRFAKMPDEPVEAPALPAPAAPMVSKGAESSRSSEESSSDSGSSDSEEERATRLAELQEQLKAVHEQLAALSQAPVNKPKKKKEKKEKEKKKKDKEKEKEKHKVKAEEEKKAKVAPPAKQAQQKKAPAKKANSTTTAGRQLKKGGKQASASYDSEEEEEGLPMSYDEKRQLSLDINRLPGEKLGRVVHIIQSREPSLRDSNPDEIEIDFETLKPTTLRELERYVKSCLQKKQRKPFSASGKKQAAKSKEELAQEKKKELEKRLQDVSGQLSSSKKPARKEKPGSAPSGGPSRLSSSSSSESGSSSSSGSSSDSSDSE

MDA-MB-231 [10] = assay: Downregulation of c-Myc expression in human MDA-MB-231 cells incubated for 24 hrs by Western blot analysis; format: functional, cell-based; settings: dose 0.2-5 µM
MDA-MB-231 [11] = assay: Induction of apoptosis in human MDA-MB-231 cells assessed as late apoptotic cells at 2.5 uM incubated for 48 hrs by Annexin V-FITC/PI staining based flow cytometry relative to control; format: functional
MDA-MB-231 [12] = assay: Induction of apoptosis in human MDA-MB-231 cells assessed as late apoptotic cells at 5 uM incubated for 48 hrs by Annexin V-FITC/PI staining based flow cytometry relative to control; format: functional
MDA-MB-231 [13] = assay: Induction of apoptosis in human MDA-MB-231 cells assessed as late apoptotic cells at 10 uM incubated for 48 hrs by Annexin V-FITC/PI staining based flow cytometry relative to control; format: functional
Candida albicans [14] = assay: Synergistic antifungal activity against azole-resistant Candida albicans 0304103 assessed as fungal growth inhibition measured upto 24 hrs in presence of FLC by absorbance based assay; format: functional, organism-based; settings: dose 4-16 µg/ml
Candida albicans [15] = assay: Antifungal activity FLC-resistant Candida albicans 0304103 assessed as hyphal formation at 32 ug/ml incubated for 3 hrs by inverse fluorescent microscopy; format: functional, organism-based; settings: dose 32.0 µg/ml
Candida albicans [16] = assay: Synergistic antifungal activity FLC-resistant Candida albicans 0304103 assessed as hyphal formation at 32 ug/ml incubated for 3 hrs in presence of FLC by inverse fluorescent microscopy; format: functional, organism-based; settings: dose 32.0 µg/ml
[17] = Metabolic stability in ICR mouse liver microsome assessed as half life; format: ADME; settings: liver microsomes
MDA-MB-231 [18] = assay: Antitumor activity against human MDA-MB-231 cells xenografted in Balb/c nude mouse assessed as tumor growth inhibition at 10 mg/kg, ip qd for 21 consecutive days relative to control; format: functional; settings: MDA-MB-231, 480 h, time 20 day, read-out: TGI

COc1cc2c(cc1-c1c(C)noc1C)[nH]c1nc(C)nc(NCCCCCCC(=O)NO)c12
Activity (MDA-MB-231 [1]): Dose-Dependent Effect
IC50 (Histone deacetylase 1): 19 nM
IC50 [2]: 63 nM
IC50 (K562): 2500 nM
IC50 (HEL): 900 nM
IC50 (HL-60): 1900 nM
IC50 (MDA-MB-231 [3]): 1000 nM
MIC80 (Cryptococcus neoformans): 8 µg/mL (≈ 17.1 µM)
MIC80 (Candida albicans [4]): > 64 µg/mL
MIC80 (Candida albicans [5]): 8 µg/mL (≈ 17.1 µM)
fractional inhibitory concentration index (FICI) (Candida albicans [6]): 0.25
IC50 (Histone deacetylase 2): 85 nM
IC50 [7]: 14 nM
IC50 [8]: 2010 nM
IC50 [9]: 2590 nM
Activity (MDA-MB-231 [10]): Dose-Dependent Effect
Activity (MDA-MB-231 [11]): 8.35%
Activity (MDA-MB-231 [12]): 46.61%
Activity (MDA-MB-231 [13]): 49.38%
Activity (Candida albicans [14]): Dose-Dependent Effect
Activity (Candida albicans [15]): Active
Activity (Candida albicans [16]): inactive
half-life [17]: 19.3 min
inhibition in vivo at 10 mg/kg (MDA-MB-231 [18]): 67.9%

COc1cc2c(cc1-c1c(C)noc1C)[nH]c1ncnc(NCCCCCCC(=O)NO)c12
Activity (MDA-MB-231 [1]): Dose-Dependent Effect
IC50 (Histone deacetylase 1): 10 nM
IC50 [2]: 35 nM
IC50 (K562): 2500 nM
IC50 (HEL): 3900 nM
IC50 (HL-60): 1200 nM
IC50 (MDA-MB-231 [3]): 500 nM
MIC80 (Cryptococcus neoformans): 8 µg/mL (≈ 17.7 µM)
MIC80 (Candida albicans [4]): > 64 µg/mL
MIC80 (Candida albicans [5]): 0.5 µg/mL (≈ 1.1 µM)
fractional inhibitory concentration index (FICI) (Candida albicans [6]): 0.07
IC50 (Histone deacetylase 2): 152 nM
IC50 [7]: 9 nM
IC50 [8]: 174 nM
IC50 [9]: 113 nM
Activity (MDA-MB-231 [10]): Dose-Dependent Effect
Activity (MDA-MB-231 [11]): 25.19%
Activity (MDA-MB-231 [12]): 58.39%
Activity (MDA-MB-231 [13]): 69.85%
Activity (Candida albicans [14]): Dose-Dependent Effect
Activity (Candida albicans [15]): Active
Activity (Candida albicans [16]): inactive
half-life [17]: 53.3 min
inhibition in vivo at 10 mg/kg (MDA-MB-231 [18]): 64.9%
